The results in this text go back to ChEMBL document CHEMBL1629664, “Oral and parenteral therapeutic options for outpatient urinary infections caused by enterobacteriaceae producing CTX-M extended-spectrum beta-lactamases” (2009).

Holding throughout (format): functional
Assay [1] deals with Enterobacteriaceae. The experiment in a line: Antibacterial activity against beta-lactamase CTX-M ESBL-producing Enterobacteriaceae by broth microdilution method. In general terms: In broth dilution the organism is exposed to a series of concentrations in liquid medium.
Assay [2] concerns Enterobacteriaceae. The experiment in a line: Antibacterial activity against beta-lactamase SHV or TEM ESBL-producing Enterobacteriaceae by broth microdilution method.
Assay [3] relates to Enterobacteriaceae. The experiment in a line: Antibacterial activity against beta-lactamase CTX-M ESBL-producing Enterobacteriaceae assessed as percent susceptible isolates by broth microdilution method.
The test system of assay [4] is Enterobacteriaceae. The experiment in a line: Antibacterial activity against beta-lactamase SHV or TEM ESBL-producing Enterobacteriaceae assessed as percent susceptible isolates by broth microdilution method.
In assay [5] the test system is Enterobacteriaceae. The experiment in a line: Antibacterial activity against beta-lactamase CTX-M ESBL-producing Enterobacteriaceae by twofold dilution method.
For assay [6], the system named is Enterobacteriaceae. The experiment in a line: Antibacterial activity against beta-lactamase SHV or TEM ESBL-producing Enterobacteriaceae by twofold dilution method.
In assay [7] the test system is Enterobacteriaceae. The experiment in a line: Antibacterial activity against beta-lactamase CTX-M ESBL-producing Enterobacteriaceae assessed as percent susceptible isolates by twofold dilution method in presence of beta-lactamase inhibitor clavulanate.
Assay [8] relates to Enterobacteriaceae. The experiment in a line: Antibacterial activity against beta-lactamase CTX-M ESBL-producing Enterobacteriaceae by twofold dilution method in presence of beta-lactamase inhibitor clavulanate.
The test system of assay [9] is Enterobacteriaceae. The experiment in a line: Antibacterial activity against beta-lactamase SHV or TEM ESBL-producing Enterobacteriaceae assessed as percent susceptible isolates by twofold dilution method in presence of beta-lactamase inhibitor clavulanate.
The subject of assay [10] is Enterobacteriaceae. The experiment in a line: Antibacterial activity against beta-lactamase SHV or TEM ESBL-producing Enterobacteriaceae by twofold dilution method in presence of beta-lactamase inhibitor clavulanate.
In assay [11] the test system is Enterobacteriaceae. The experiment in a line: Antibacterial activity against beta-lactamase CTX-M ESBL-producing Enterobacteriaceae assessed as percent susceptible isolates by twofold dilution method.
Assay [12] relates to Enterobacteriaceae. The experiment in a line: Antibacterial activity against beta-lactamase SHV or TEM ESBL-producing Enterobacteriaceae assessed as percent susceptible isolates by twofold dilution method.
Assay [13] deals with Enterobacteriaceae. The experiment in a line: Antibacterial activity against beta-lactamase CTX-M ESBL-producing Enterobacteriaceae assessed as percent susceptible isolates by agar dilution method. For orientation: In agar dilution the substance is mixed into plates at graded concentrations.
Assay [14] concerns Enterobacteriaceae. The experiment in a line: Antibacterial activity against beta-lactamase SHV or TEM ESBL-producing Enterobacteriaceae assessed as percent susceptible isolates by agar dilution method.
The subject of assay [15] is Enterobacteriaceae. The experiment in a line: Antibacterial activity against beta-lactamase CTX-M ESBL-producing Enterobacteriaceae by agar dilution method.
For assay [16], the system named is Enterobacteriaceae. The experiment in a line: Antibacterial activity against beta-lactamase SHV or TEM ESBL-producing Enterobacteriaceae by agar dilution method.
Assay [17] deals with Proteus mirabilis. The experiment in a line: Antibacterial activity against beta-lactamase ESBL-producing Proteus mirabilis assessed as percent susceptible isolates by broth microdilution method.
The test system of assay [18] is Klebsiella sp. The experiment in a line: Antibacterial activity against beta-lactamase ESBL-producing Klebsiella sp. assessed as percent susceptible isolates by broth microdilution method.
Assay [19] concerns Escherichia coli. The experiment in a line: Antibacterial activity against beta-lactamase ESBL-producing Escherichia coli assessed as percent susceptible isolates by broth microdilution method.
For assay [20], the system named is Escherichia coli. The experiment in a line: Antibacterial activity against beta-lactamase ESBL-producing Escherichia coli by broth microdilution method.

By MIC50 is commonly meant an inhibitory concentration at the 50% level, which refers to growth in some studies and to a panel of isolates in others. Broadly, the MIC90 is an inhibitory concentration at the 90% level, which refers to growth in some studies and to a panel of isolates in others.

SMILES strings stand for the structures. ≈ marks a conversion by molar mass, not a printed value.

`C[C@H]1c2cccc(O)c2C(=O)C2=C(O)[C@]3(O)C(=O)C(C(N)=O)=C(O)[C@@H](N(C)C)[C@@H]3[C@@H](O)[C@@H]21.O` [DOXYCYCLINE]: the MIC50 in [1] and in assay [2] was 16 µg/mL each time. For the same molecule, the MIC90 in assay [1] and in [2] was 16 µg/mL each time. Moreover, the Activity in assay [3] was determined as 10.9%; in assay [4], 18.2%.
On to `CC1(C)S[C@@H]2[C@H](NC(=O)[C@H](N)c3ccc(O)cc3)C(=O)N2[C@H]1C(=O)O` [AMOXICILLIN], for which the MIC50 in assay [5] worked out at 4 µg/mL (≈ 10.9 µM); in assay [6] it was 4 µg/mL (≈ 10.9 µM); in [8], 32 µg/mL; in assay [10], 32 µg/mL. Besides, the MIC90 in assay [5] stood at 4 µg/mL (≈ 10.9 µM); in [6], 4 µg/mL (≈ 10.9 µM); in [8], 32 µg/mL; in assay [10] it was 32 µg/mL. Also, the Activity is reported as 10.9% in assay [7] and 45.5% in [9].
Take `C=CC1=C(C(=O)O)N2C(=O)[C@@H](NC(=O)/C(=N\O)c3csc(N)n3)[C@H]2SC1` [CEFDINIR]: the Activity in [11] and in assay [12] was 0% throughout. In addition, the MIC50 in assay [5] amounted to 16 µg/mL (≈ 40.5 µM); in assay [6], 4 µg/mL (≈ 10.1 µM). Also, the MIC90 in [5] and in assay [6] was 16 µg/mL (≈ 40.5 µM) throughout.
Take `O=C1CN(/N=C/c2ccc([N+](=O)[O-])o2)C(=O)N1` [NITROFURANTOIN]: the MIC50 came out at 16 µg/mL (≈ 67.2 µM) in assay [1] and 64 µg/mL (≈ 269 µM) in assay [2]. For the same molecule, the MIC90 in assay [1] and in assay [2] was 64 µg/mL (≈ 269 µM) throughout. The Activity in assay [3] is listed as 73.9%; in [4], 45.5%.
With `O=C(O)c1cn(C2CC2)c2cc(N3CCNCC3)c(F)cc2c1=O` [CIPROFLOXACIN], the MIC50 in assay [1] and in [2] was 32 µg/mL (≈ 96.6 µM) in each case. Also, the MIC90 in assay [1] and in assay [2] was 32 µg/mL (≈ 96.6 µM) each time. For the same molecule, the Activity in assay [3] was found to be 4.3%; in assay [4] it was 36.4%.
Take `C[C@@H]1O[C@@H]1P(=O)(O)O` [FOSFOMYCIN]: the Activity is on record as 91.3% in [13] and 100% in [14]. Besides, the values for the MIC50 in assay [15] and in assay [16] were 0.5 µg/mL (≈ 3.62 µM) and 4 µg/mL (≈ 29 µM), respectively. Besides, the MIC90 in assay [15] was 64 µg/mL (≈ 464 µM); in assay [16], 8 µg/mL (≈ 57.9 µM).
Take `C[C@@H](O)[C@H]1C(=O)N2C(C(=O)O)=C(S[C@@H]3CN[C@H](C(=O)Nc4cccc(C(=O)O)c4)C3)[C@H](C)[C@H]12` [ERTAPENEM]: the results for the MIC50 in assay [1] and in assay [2] were 0.06 µg/mL (≈ 0.126 µM) and 0.12 µg/mL (≈ 0.252 µM), respectively. Also, the MIC90 in assay [1] was 0.25 µg/mL (≈ 0.526 µM); in [2], 1 µg/mL (≈ 2.1 µM); in [20], 0.06 µg/mL (≈ 0.126 µM). Moreover, the Activity in [17], in assay [18], in assay [3], in [19] and in assay [4] was 100% each time.
